Results taken from paper PMC11181328 (Journal of Medicinal Chemistry, 2024).
Structures can show the parent of a compound that is named as a salt. Where two headings read alike, the source gives them in different places.

Experiments:
[1] = target: T1, KOR (Mus musculus, UniProt P33534); assay: Competitive radioligand binding assay, KOR; conditions: for radioligand binding affinity (Ki, nM) KOR: [3H]diprenorphine, mKOR-CHO membranes; for selectivity ratio δ/κ / selectivity ratio μ/κ: ratio of Ki values
T1 construct: expressed in transfected cells; membrane homogenate

[2] = target: T2, DOR (Homo sapiens, UniProt P41143); assay: Competitive radioligand binding assay, DOR
T2 construct: expressed in transfected cells; membrane homogenate

[3] = target: T2, DOR; assay: [35S]-GTPγS functional assay, DOR; type: biochemical; conditions: for EC50: hDOR-CHO membranes; for Emax: percent of SNC80 full agonist control
[4] = test system: male Swiss Webster mice; assay: Warm-water tail immersion assay, agonism (single dose screen and potency); type: in vivo, mouse; conditions: for ED50: Mus musculus, sc, read-out: potency ED50 [95% CI] mg/kg, s.c., 20 min prior to tail withdrawal latency measurement, male Swiss Webster mice; for percent MPE / antinociception compared to the vehicle group: single dose 10 mg/kg s.c.; for percent MPE: withdrawal latency 20 min after administration; for antinociception compared to the vehicle group: 20 min
[5] = target: T3, MOR (Mus musculus, UniProt P42866); assay: Competitive radioligand binding assay, MOR; design: expressed in transfected cells; membrane homogenate
[6] = target: T3, MOR; assay: [35S]-GTPγS functional assay, MOR; type: biochemical; design: expressed in transfected cells; membrane homogenate; conditions: for Emax: read-out: [35S]-GTPγS functional activity MOR Emax (%)
[7] = target: T1, KOR; assay: [35S]-GTPγS functional assay, KOR; type: biochemical; conditions: for EC50: mKOR-CHO membranes; for Emax: percent of U50,488 full agonist control
[8] = [3H]naloxone, mMOR-CHO membranes

Row | Structure (SMILES) | Ki [1] [nM] | radioligand binding affinity (Ki, nM) KOR [1] | Ki [2] [nM] | EC50 [3] [nM] | Emax [3] [%] | ED50 [4] [mg/kg] | percent MPE [4] [%] | Ki [5] [nM] | EC50 ([6]; mMOR-CHO membranes) [nM] | Emax [6] [%] | selectivity ratio δ/κ [1] | selectivity ratio μ/κ [1] | EC50 [7] [nM] | Emax [7] [%] | antinociception compared to the vehicle group [4] | radioligand binding affinity (Ki, nM) MOR [5, 8] | radioligand binding affinity (Ki, nM) DOR ([2]; [3H]diprenorphine, hDOR-CHO membranes) | Ki ([5]; [3H]naloxone, mMOR-CHO membranes, read-out: radioligand binding affinity (Ki, nM) MOR) [nM] | EC50 ([6]; supplement csv) [nM]
1 | CN(C(=O)CCc1ccoc1)[C@H]1CC[C@@]2(O)[C@H]3Cc4cccc5c4[C@@]2(CCN3CC2CC2)[C@H]1O5 [Compound 1, 17-Cyclopropylmethyl-4,5α-epoxy-6α-[3′-(furan-3″-yl)N-methylpropanamido]-14β-hydroxymorphinan Hydrochloride] | 0.48 ± 0.07 | subnanomolar | 48.6 ± 6.51 | 137 ± 26.5 | 56.4 ± 2.6 | 0.553 | ≥ 80 | 7.74 ± 0.69 | 20 ± 3.49 | 11.5 ± 0.81 |  |  |  |  |  |  |  |  | 
2 | CN(C(=O)CCc1ccco1)[C@@H]1CC[C@@]2(O)[C@H]3Cc4cccc5c4[C@@]2(CCN3CC2CC2)[C@H]1O5 [Compound 11, 17-Cyclopropylmethyl-4,5α-epoxy-6β-[3′-(furan-2″-yl)-N-methylpropanamido]-14β-hydroxymorphinan Hydrochloride] | 50.4 ± 6.84 |  | 532 ± 92.5 | 1100 ± 108 | 61.7 ± 4.27 |  |  | 93.6 ± 10.4 | 5620 ± 2130 | 22.9 ± 2.39 | 11 | 2 | 146 ± 27.1 | 109 ± 5.9 | lack of significant antinociceptive effect |  |  |  | 
3 | CN(C(=O)CCc1ccco1)[C@H]1CC[C@@]2(O)[C@H]3Cc4cccc5c4[C@@]2(CCN3CC2CC2)[C@H]1O5 [Compound 9, 17-Cyclopropylmethyl-4,5α-epoxy-6α-[3′-(furan-2″-yl)N-methylpropanamido]-14β-hydroxymorphinan Hydrochloride] | 1 ± 0.18 |  | 46.8 ± 8.37 | 212 ± 33.8 | 70.5 ± 5.9 |  |  | 14.1 ± 1.4 | 76.5 ± 48.5 | 11.2 ± 1.55 | 47 | 14 | 18.4 ± 1.05 | 91.4 ± 1.46 | lack of significant antinociceptive effect |  |  |  | 
4 | O=C(/C=C/c1ccco1)N[C@@H]1CC[C@@]2(O)[C@H]3Cc4ccc(O)c5c4[C@@]2(CCN3CC2CC2)[C@H]1O5 [Compound 24, 17-Cyclopropylmethyl-3,14β-dihydroxy-4,5α-epoxy-6β-[(2E)-3′-(furan-2″-yl)prop-2-enamido]morphinan Hydrochloride] | 0.17 ± 0.02 | subnanomolar | 12.8 ± 2.37 | 13.1 ± 2.09 |  | 3.32 | ≥ 80 | 0.3 ± 0.02 | 6.76 ± 1.99 |  |  |  | 0.54 ± 0.11 |  |  | subnanomolar |  |  | 
5 | O=C(CCc1ccoc1)N[C@H]1CC[C@@]2(O)[C@H]3Cc4cccc5c4[C@@]2(CCN3CC2CC2)[C@H]1O5 [Compound 2, 17-Cyclopropylmethyl-4,5α-epoxy-6α-[3′-(furan-3″-yl)propanamido]-14β-hydroxymorphinan Hydrochloride] | 161 ± 11.8 |  | 154 ± 26.5 | 429 ± 62.6 | > 80 |  |  | 54.5 ± 2.01 | 200 ± 63.1 | 8.8 ± 0.55 | 1 |  | 1010 ± 176 | 66.1 ± 5.2 | lack of significant antinociceptive effect |  |  |  | 
6 | CN(C(=O)CCc1ccoc1)[C@@H]1CC[C@@]2(O)[C@H]3Cc4ccc(O)c5c4[C@@]2(CCN3CC2CC2)[C@H]1O5 [Compound 7, 17-Cyclopropylmethyl-3,14β-dihydroxy-4,5α-epoxy-6β-[3′-(furan-3″-yl)-N-methylpropanamido]morphinan Hydrochloride] | 0.28 ± 0.05 | subnanomolar | 8.42 ± 0.9 | 19.2 ± 1.62 | 51.4 ± 2.78 | 0.443 | ≥ 80 | 0.53 ± 0.06 | 4.3 ± 0.47 | 12.2 ± 0.92 |  |  | 0.99 ± 0.04 | 102 ± 1.05 |  | subnanomolar |  |  | 
7 | O=C(/C=C/c1ccco1)N[C@@H]1CC[C@@]2(O)[C@H]3Cc4cccc5c4[C@@]2(CCN3CC2CC2)[C@H]1O5 [Compound 20, 17-Cyclopropylmethyl-4,5α-epoxy-6β-[(2E)-3′-(furan-2″-yl)prop-2-enamido]-14β-hydroxymorphinan Hydrochloride] | 7.03 ± 0.92 |  | 551 ± 64 | 860 ± 148 | > 80 |  |  | 42.4 ± 2.34 | 1140 ± 984 | 12.8 ± 3 | 78 | 6 | 178 ± 18.1 | 99.7 ± 5.88 | lack of significant antinociceptive effect |  |  |  | 
8 | O=C(/C=C/c1ccco1)N[C@H]1CC[C@@]2(O)[C@H]3Cc4cccc5c4[C@@]2(CCN3CC2CC2)[C@H]1O5 [Compound 18, 17-Cyclopropylmethyl-4,5α-epoxy-6α-[(2E)-3′-(furan-2″-yl)prop-2-enamido]-14β-hydroxymorphinan Hydrochloride] | 249 ± 32 |  | 456 ± 26.4 | 1240 ± 147 | 75 ± 5.1 |  |  | 107 ± 8.37 | 1510 ± 948 | 16 ± 2.91 | 2 |  | 1370 ± 89 | 85.2 ± 6.52 | lack of significant antinociceptive effect |  |  |  | 
9 | O=C(/C=C/c1ccco1)N[C@H]1CC[C@@]2(O)[C@H]3Cc4ccc(O)c5c4[C@@]2(CCN3CC2CC2)[C@H]1O5 [Compound 22, 17-Cyclopropylmethyl-3,14β-dihydroxy-4,5α-epoxy-6α-[(2E)-3′-(furan-2″-yl)prop-2-enamido]morphinan Hydrochloride] | 1.08 ± 0.03 |  | 8.75 ± 0.58 | 21.1 ± 1.41 |  | 4.08 | ≥ 80 | 0.53 ± 0.06 | 2.97 ± 0.45 |  |  |  | 13.7 ± 2.52 |  |  | subnanomolar |  |  | 
10 | CN(C(=O)CCc1ccoc1)[C@@H]1CC[C@@]2(O)[C@H]3Cc4cccc5c4[C@@]2(CCN3CC2CC2)[C@H]1O5 [Compound 3, 17-Cyclopropylmethyl-4,5α-epoxy-6β-[3′-(furan-3″-yl)-N-methylpropanamido]-14β-hydroxymorphinan Hydrochloride] | 34.5 ± 6.27 |  | 891 ± 52.5 | 5780 ± 829 | 66.9 ± 3.52 |  |  | 43.8 ± 2.85 | 224 ± 44.9 | 13.8 ± 1.86 | 26 | 1 | 246 ± 29.2 | 86.42 ± 0.63 | lack of significant antinociceptive effect |  |  |  | 
11 | O=C(CCc1ccoc1)N[C@@H]1CC[C@@]2(O)[C@H]3Cc4cccc5c4[C@@]2(CCN3CC2CC2)[C@H]1O5 [Compound 4, 17-Cyclopropylmethyl-4,5α-epoxy-6β-[3′-(furan-3″-yl)propanamido]-14β-hydroxymorphinan Hydrochloride] | 8.37 ± 1.44 |  | 749 ± 59.1 | 1690 ± 116 | 55.8 ± 2.39 |  |  | 17.3 ± 1.68 | 185 ± 38 | 14.2 ± 1.27 | 90 | 2 | 117 ± 21.2 | 81.4 ± 7.72 |  |  |  |  | 
12 | CN(C(=O)CCc1ccoc1)[C@H]1CC[C@@]2(O)[C@H]3Cc4ccc(O)c5c4[C@@]2(CCN3CC2CC2)[C@H]1O5 [Compound 5, 17-Cyclopropylmethyl-3,14β-dihydroxy-4,5α-epoxy-6α-[3′-(furan-3″-yl)-N-methylpropanamido]morphinan Hydrochloride] | 0.13 ± 0.02 | subnanomolar | 0.59 ± 0.06 | 0.75 ± 0.09 | 68.3 ± 1 |  |  | 0.18 ± 0.02 | 0.37 ± 0.05 | 17.9 ± 1.81 |  |  |  |  |  | subnanomolar | subnanomolar |  | 
13 | CN(C(=O)/C=C/c1ccco1)[C@@H]1CC[C@@]2(O)[C@H]3Cc4cccc5c4[C@@]2(CCN3CC2CC2)[C@H]1O5 [Compound 19, 17-Cyclopropylmethyl-4,5α-epoxy-6β-[(2E)-3′-(furan-2″-yl)-N-methylprop-2-enamido]-14β-hydroxymorphinan Hydrochloride] | 4.11 ± 0.57 |  | 2260 ± 338 | 5980 ± 581 | > 80 |  |  | 215 ± 26.5 | 888 ± 363 | 11 ± 0.68 | 551 | 52 | 53.9 ± 3.33 | 96.9 ± 8.02 |  |  |  |  | 
14 | Cl.O=C(CCc1ccco1)N[C@H]1CC[C@@]2(O)[C@H]3Cc4ccc(O)c5c4[C@@]2(CCN3CC2CC2)[C@H]1O5 [Compound 14, 17-Cyclopropylmethyl-3,14β-dihydroxy-4,5α-epoxy-6α-[3′-(furan-2″-yl)propanamido]morphinan Hydrochloride] |  |  |  | 3.55 ± 0.77 |  |  |  |  |  | 21.8 ± 2.76 |  |  | 5.22 ± 0.79 |  | lack of significant antinociceptive effect | subnanomolar |  | 0.72 ± 0.1 | 2.77 ± 0.73
